Key:
bronchial asthma = settings: 16 cases of bronchial asthma patients; cited from earlier work
IgM antibodies = assay: Effect on IgM antibody production in ovalbumin-sensitized mice (ELISA); type: in vivo, BALB/c line male mice; settings: for IgM antibody yield (% control): 7 times, blood 14 days after sensitization
Description: (§1) That is, 4 mg of aluminum hydroxide to which 10 µg of ovalbumin has been adsorbed was intraperitoneally administered to 5 individuals per group of BALB/c line male mice (body weight, 21 - 25 g) to effect sensitization. Immediately after the sensitization, a 5% acacia aqueous solution containing a varied concentration of tofisopam or a 5% acacia aqueous solution containing no tofisopam (control) was administered orally once a day, 7 times in total. After 14 days of the sensitization, blood samples were collected to measure produced amounts of various types of immunoglobulin by means of enzyme-linked immunosorbent assay (ELISA). Production yields of IgG₁ and IgM antibodies were measured in the following manner. That is, a blood plasma sample was added to immobilized anti-mouse IgG₁ or IgM antibodies to allow IgG₁ antibodies or IgM antibodies to be linked, followed by the reaction with horseradish peroxidase-labeled anti-mouse IgG₁ antibodies or horseradish peroxidase-labeled anti-mouse IgM antibodies, and then the amount of produced IgG₁ or IgM antibodies was measured based on the horseradish peroxidase activity as a marker.

[1] = system: psychogenic bronchial asthma; settings: of 26 cases; with simultaneous β₂ stimulant and theophylline preparation; cited from earlier work
IgE antibodies = assay: Effect on IgE antibody production in ovalbumin-sensitized mice (ELISA); type: in vivo, BALB/c line male mice; settings: for IgE antibody yield (% control): 7 times, blood 14 days after sensitization
Description: That is, 4 mg of aluminum hydroxide to which 10 μg of ovalbumin has been adsorbed was intraperitoneally administered to 5 individuals per group of BALB/c line male mice (body weight, 21 - 25 g) to effect sensitization. Immediately after the sensitization, a 5% acacia aqueous solution containing a varied concentration of tofisopam or a 5% acacia aqueous solution containing no tofisopam (control) was administered orally once a day, 7 times in total. After 14 days of the sensitization, blood samples were collected to measure produced amounts of various types of immunoglobulin by means of enzyme-linked immunosorbent assay (ELISA). Production yield of IgE antibodies was measured in the following manner. That is, a blood plasma sample was added to immobilized anti-mouse IgE antibodies to allow IgE to be linked, followed by the reaction with biotin-labeled anti-mouse IgE antibodies and avidin-labeled horseradish peroxidase, and then the amount of produced IgE antibodies was measured based on the horseradish peroxidase activity as a marker (Men'eki-to-[…], vol.15, pp.211 - 216, 1988).

[2] = in vivo; cited from earlier work
IgG₁ antibodies = assay: Effect on IgG₁ antibody production in ovalbumin-sensitized mice (ELISA); type: in vivo, BALB/c line male mice; settings: for IgG₁ antibody yield (% control): 7 times, blood 14 days after sensitization
Description: as §1

chronic urticaria [3] = settings: of 14 cases; with antihistaminic drug, Chinese orthodox medicine and the like; cited from earlier work
rat experimental asthma = assay: Rat experimental asthma, airway resistance by over flow technique; type: in vivo, Wister line male rats
Description: That is, 2 x 10¹⁰ cells of inactivated Bordetella pertussis and 1 mg of ovalbumin were respectively administered intraperitoneally and intramuscularly to 5 individuals per group of Wister line male rats (body weight, 194 - 210 g) to effect sensitization. Immediately after the sensitization, a 5% acacia aqueous solution containing a varied concentration of tofisopam or a 5% acacia aqueous solution containing no tofisopam (control) was administered orally once a day, 14 times in total.
After 14 days of the sensitization, ovalbumin was administered to the sensitized rats intravenously at a dose of 0.5 mg/kg, and the increasing degree of airway resistance was measured by means of the over flow technique (Arch. Exp. Pathol. Pharmak., vol.195, pp.71 - 74, 1974). The thus obtained inhibition rate of airway contraction, when the result of the control test is defined as 100, is shown in Table 4.

chronic urticaria [4] = settings: of 2 cases; cited from earlier work
[5] = 100 mg/kg/day orally once a day
[6] = 300 mg/kg/day orally once a day
[7] = 100 or 300 mg/kg/day orally for 7 days

SMILES: CCC1C(C)=NN=C(c2ccc(OC)c(OC)c2)c2cc(OC)c(OC)cc21 (stereo not drawn) [Tofisopam, 1-(3,4-dimethoxyphenyl)-5-ethyl-7,8-dimethoxy-4-methyl-5H-2,3-benzodiazepine]
- efficacy in objective findings (bronchial asthma): 25%
- efficacy in subjective symptoms (bronchial asthma): 50%
- IgM antibody yield (% control) (IgM antibodies; [5]): 97 % control
- IgM antibody yield (% control) (IgM antibodies; [6]): 87 % control
- influence upon the production of IgM antibodies (IgM antibodies; [7]): hardly exerts influence
- cases improved [1]: one
- IgE antibody yield (% control) (IgE antibodies; [5]): 66 % control
- IgE antibody yield (% control) (IgE antibodies; [6]): 56 % control
- inhibition at 100 mg/kg (IgE antibodies; Mus musculus, po, 168 h, 100 mg/kg/day orally for 7 days): ~34%
- inhibition at 300 mg/kg (IgE antibodies; Mus musculus, po, 168 h, 300 mg/kg/day orally for 7 days): ~44%
- acute, subacute and chronic toxicities [2]: confirmed safety of the compound
- IgG₁ antibody yield (% control) (IgG₁ antibodies; [5]): 113 % control
- IgG₁ antibody yield (% control) (IgG₁ antibodies; [6]): 111 % control
- influence upon the production of IgG₁ antibodies (IgG₁ antibodies; [7]): hardly exerts influence
- cases improved (chronic urticaria [3]): 8
- airway reaction (rat experimental asthma; 100 mg/kg/day orally for 14 days): can inhibit the airway reaction
- Inhibition rate (%) of airway contraction (rat experimental asthma; 100 mg/kg/day orally once a day, 14 times, ovalbumin 0.5 mg/kg intravenously 14 days after sensitization): 27%
- cases improved significantly (chronic urticaria [4]): 1

— patent EP0548370A1, “DRUG FOR PREVENTING AND/OR TREATING ALLERGIC DISEASE” (MOCHIDA PHARMACEUTICAL CO., LTD., priority 1991, dated 1993)
